Measured values as given in patent US20250003008A1, “METHODS FOR TREATMENT OF CANCER” (The Johns Hopkins University, priority 2021, published 2025).
Like-named read-outs stand apart in the source and are kept apart here.

Assays:
[1] = Procedure: PrE0505, a phase 2 single arm multicenter study, enrolled human patients with previously untreated unresectable MPM (NCT02899195, FIG. 1). […] Patients with stable or responding tumors after concurrent therapy, continued on maintenance durvalumab for a maximum duration of one year from the first study treatment. A protocol-defined safety review was performed after enrollment of the first 6 and 15 patients. Pre-specified dose-limiting toxicities during the safety run-in period included any immune-mediated adverse event of ≥grade 4 or any non-resolving immune-mediated adverse event of ≥grade 3 during the first two cycles of therapy.
Imaging was performed every 6 weeks during the concurrent phase of treatment and every 9 weeks during maintenance durvalumab. Best objective response was evaluated by RECIST Version 1.1 criteria modified for mesothelioma. Toxicity was determined using the CTCAE Version 4.03 criteria.
Secondary objectives included safety and tolerability of durvalumab and durvalumab in combination with chemotherapy in subjects with malignant pleural mesothelioma, percentage of patients progression-free at 24 weeks from the time of registration (response coded based on modified RECIST 1.1 criteria for mesothelioma), progression-free survival-measured from the time of study registration until radiologic progression, clinical progression or death, best objective response rate with evaluation continued up to 1 year (response coded based on modified RECIST Version 1.1 criteria for mesothelioma). Exploratory objectives included assessment of tumor baseline PD-L1 expression, the genomic and neoantigen landscape of tumors, dynamics of circulating cell free tumor DNA and other blood-based biomarkers.

[2] = test system: malignant pleural mesothelioma; details: historical control, phase 3 study; cited from earlier work
[3] = of the patients who received that agent within the regimen

| Molecule | patients who received a dose reduction due to toxicity [1, 3] | other results |
| --- | --- | --- |
| N.N.O=C([O-])C1(C(=O)[O-])CCC1.[Pt+2] [carboplatin] | 12% |  |
| N.N.[Cl][Pt][Cl] [cisplatin] |  | survival [2]: 9.3 months |
| Nc1nc2[nH]cc(CCc3ccc(C(=O)N[C@@H](CCC(=O)O)C(=O)O)cc3)c2c(=O)[nH]1 [pemetrexed] |  | patients who received a dose reduction due to toxicity ([1]; human, in vivo): 2% |
| durvalumab | no patients |  |
